Test [1] deals with HEK293T. In words: Inhibition of autophosphorylation of NCOA4-RET V804M mutant (unknown origin) transfected HEK293T cells assessed as inhibition of autophosphorylation of RET at 100 to 2500 nM measured after 2 hrs by Western blotting analysis. The following applies: Homo sapiens, dose 100-2500 nM. It is filed as cell-based.
The test system of test [2] is HEK293T. In words: Inhibition of autophosphorylation of human NCOA4-RET G810R mutant transfected HEK293T cells assessed as inhibition of autophosphorylation of RET at 100 to 2500 nM measured after 2 hrs by Western blotting analysis. The test is classed as cell-based. The note with it: dose 100-2500 nM.

The source made the active and inactive calls. The calls are words filed in the database; no cut-off is given here.

For `CCN1CCN(c2cc(Nc3cc(C)n[nH]3)nc(Nc3ccc(CC(=O)NCc4cccc(F)c4)cc3)n2)CC1`, in test [1], the inhibition entry was “Active”. Moreover, in test [2], the inhibition result is “inactive”.

For the compound `Cc1cc(Nc2cc(N3CCN(C)CC3)nc(Nc3ccc(CC(=O)Nc4ccc(C(C)C)cc4)cc3)n2)[nH]n1`, the inhibition entry in test [1] is “Active”. In addition, the inhibition result in test [2] is “inactive”.

With `Cc1cc(Nc2cc(N3CCN(C)CC3)nc(Nc3ccc(CC(=O)Nc4ccc(F)cc4)cc3)n2)[nH]n1`, in test [1], the inhibition entry is “Active”. Also, the inhibition entry in test [2] was “inactive”.

On to `Cc1cc(Nc2cc(N3CCN(C)CC3)nc(Nc3ccc(CC(=O)Nc4cccc(F)c4)cc3)n2)[nH]n1`, for which the inhibition result in test [1] is “Active”. Moreover, in test [2], the inhibition result is “inactive”.

The values are drawn from ChEMBL document CHEMBL5046267, “Discovery of N-Trisubstituted Pyrimidine Derivatives as Type I RET and RET Gatekeeper Mutant Inhibitors with a Novel Kinase Binding Pose” (J Med Chem, 2022).
